Here are results for two compounds from patent US20220401564A1 (DANA-FARBER CANCER INSTITUTE, INC., priority 2019, published 2022).

pIC50: −log10 of the molar value. “Also recorded” adds a separate entry of the source.

One assay deals with HDAC3 (Homo sapiens, UniProt O15379). Description: Change in cellular protein abundance (TMT proteomics) in Kelly cells. It counts as cell-based. More on the design: relative change in relative protein abundance with treatment of Kelly cells; endogenous in cells; host or cells: Kelly cells. The following applies: for HDAC3 protein levels, relative protein abundance compared to DMSO control: scatter plots FIG. 1 and FIG. 3. The procedure:
Lysis buffer (8 M Urea, 50 mM NaCl, 50 mM 4-(2hydroxyethyl)-1-piperazineethanesulfonic acid (EPPS) pH 8.5, protease and phosphatase inhibitors from Roche®) were added to the cell pellets and homogenized by 20 passes through a 21 gauge (1.25 in. long) needle to achieve a cell lysate with a protein concentration between 1-4 mg mL-1. A micro-BCA assay (Pierce™) was used to determine the final protein concentration in the cell lysate. 200 μg of protein for each sample were reduced and alkylated as described in Donovan et al., Elife 7:e38430 (2018).
Proteins were precipitated using methanol/chloroform. Four volumes of methanol were added to the cell lysate, followed by one volume of chloroform, and finally three volumes of water. The mixture was vortexed and centrifuged to separate the chloroform phase from the aqueous phase. The precipitated protein was washed with three volumes of methanol, centrifuged and the resulting washed precipitated protein was allowed to air dry. The precipitated protein was resuspended in 4 M Urea, 50 mM HEPES pH 7.4, followed by dilution to 1 M urea with the addition of 200 mM EPPS, pH 8. Proteins were first digested with LysC (1:50; enzyme:protein) for 12 hours at room temperature. The LysC digestion was diluted to 0.5 M Urea with 200 mM EPPS pH 8 followed by digestion with trypsin (1:50; enzyme:protein) for 6 hours at 37° C. Tandem mass tag (TMT) reagents (Thermo Fisher Scientific) were dissolved in anhydrous acetonitrile (ACN) according to manufacturer's instructions.
Anhydrous ACN was added to each peptide sample to a final concentration of 30% v/v, and labeling was induced with the addition of TMT reagent to each sample at a ratio of 1:4 peptide:TMT label. The 10-plex labeling reactions were performed for 1.5 hours at room temperature and the reaction quenched by the addition of hydroxylamine to a final concentration of 0.3% for 15 minutes at room temperature. The sample channels were combined at a 1:1:1:1:1:1:1:1:1:1:1 ratio, desalted using Cis solid phase extraction cartridges (Waters®) and analyzed by LC-MS for channel ratio comparison. Samples were then combined using the adjusted volumes determined in the channel ratio analysis and dried down in a speed vacuum. The combined sample was then resuspended in 1% formic acid, and acidified (pH 2-3) before being subjected to desalting with C18 SPE (Sep-Pak®, Waters®). Samples were then offline fractionated into 96 fractions by high pH reverse-phase HPLC (Agilent® LC1260) through an aeris peptide xb-c18 column (Phenomenex®) with mobile phase A containing 5% acetonitrile and 10 mM NH4HCO3 in LC-MS grade H2O, and mobile phase B containing 90% acetonitrile and 10 mM NH4HCO3 in LC-MS grade H2O (both pH 8.0). The 96 resulting fractions were then pooled in a non-continuous manner into 24 fractions and these fractions were used for subsequent mass spectrometry analysis.
Data were collected using an Orbitrap Fusion™ Lumos™ mass spectrometer (Thermo Fisher Scientific, San Jose, Calif., USA) coupled with a Proxeon EASY-nLC™ 1200 LC pump (Thermo Fisher Scientific). Peptides were separated on an EasySpray™ ES803 75 μm inner diameter microcapillary column (ThermoFisher Scientific).
Each analysis used an MS3-based TMT method as described previously. The data were acquired using a mass range of m z 340-1350, resolution 120,000, automatic gain control (AGC) target 1×10^6, maximum injection time 100 ms, dynamic exclusion of 120 seconds for the peptide measurements in the Orbitrap Fusion™ Lumos™ mass spectrometer. Data dependent MS2 spectra were acquired in the ion trap with a normalized collision energy (NCE) set at 55%, AGC target set to 1.5×10^5 and a maximum injection time of 150 ms. […]

A further assay has as its target T1, VHL (Homo sapiens, UniProt P40337).
T1 construct: Cells stably expressing the BRD4BD2-GFP with mCherry reporter (40) were seeded; endogenous in cells
Description: Cellular VHL engagement assay (BRD4BD2-GFP / mCherry reporter cells). The format is cell-based. Particulars: with 250 nM AT1, 5 h.

Chain of HDAC3 (O15379 whole entry): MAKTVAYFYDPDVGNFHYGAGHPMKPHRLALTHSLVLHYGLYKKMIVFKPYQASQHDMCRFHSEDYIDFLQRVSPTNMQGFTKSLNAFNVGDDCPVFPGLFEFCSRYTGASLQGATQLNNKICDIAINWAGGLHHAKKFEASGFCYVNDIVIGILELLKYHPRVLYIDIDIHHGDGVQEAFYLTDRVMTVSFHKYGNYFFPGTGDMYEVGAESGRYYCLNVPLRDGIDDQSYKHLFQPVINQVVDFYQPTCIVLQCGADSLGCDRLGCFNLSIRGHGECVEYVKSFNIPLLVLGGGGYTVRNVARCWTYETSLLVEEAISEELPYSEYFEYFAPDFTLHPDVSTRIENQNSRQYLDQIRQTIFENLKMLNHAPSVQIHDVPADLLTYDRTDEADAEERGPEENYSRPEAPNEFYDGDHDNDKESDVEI
T1 sequence (P40337 whole entry, species assumed): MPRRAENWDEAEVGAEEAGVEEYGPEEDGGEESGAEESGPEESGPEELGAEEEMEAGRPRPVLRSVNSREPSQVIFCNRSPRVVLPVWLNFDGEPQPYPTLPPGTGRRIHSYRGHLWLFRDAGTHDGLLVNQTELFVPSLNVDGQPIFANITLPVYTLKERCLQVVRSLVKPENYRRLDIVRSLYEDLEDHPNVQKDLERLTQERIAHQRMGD

The pIC50 is the negative decadic logarithm of the IC50, by convention in mol/L. High values mean a low IC50, low ones a high IC50. Regarding `Cc1ncsc1-c1ccc([C@H](C)NC(=O)[C@@H]2C[C@@H](O)CN2C(=O)[C@@H](NC(=O)CCOCCOCCN(CCc2c[nH]c3ccccc23)Cc2ccc(/C=C/C(=O)NO)cc2)C(C)(C)C)cc1` [Compound 2, (2S,4R)-1-((S)-14-(tert-butyl)-3-(4-((E)-3-(hydroxyamino)-3-oxoprop-1-en-1-yl)benzyl)-1-(1H-indol-3-yl)-12-oxo-6,9-dioxa-3,13-diazapentadecan-15-oyl)-4-hydroxy-N—((S)-1-(4-(4-methylthiazol-5-yl)phenyl)ethyl)pyrrolidine-2-carboxamide], at HDAC3 (1 μM, 5 hours, vs DMSO), the “cellular HDAC3 protein levels, change in relative protein abundance (heat map FIG. 2)” value is recorded as “down-regulation”. In addition, the “HDAC3 protein levels, relative protein abundance compared to DMSO control” value on HDAC3 is “significant and selective reduction”. For the same compound, at VHL, the negative logarithm of the IC50 (pIC50) is 4.93.

For the compound `Cc1ncsc1-c1ccc(CNC(=O)[C@@H]2C[C@@H](O)CN2C(=O)[C@@H](NC(=O)C2(F)CC2)C(C)(C)C)c(OCCCCCN(CCc2c[nH]c3ccccc23)Cc2ccc(/C=C/C(=O)NO)cc2)c1` [Compound 7, (2S,4R)—N-(2-((5-((2-(1H-indol-3-yl)ethyl)(4-((E)-3-(hydroxyamino)-3-oxoprop-1-en-1-yl)benzyl)amino)pentyl)oxy)-4-(4-methylthiazol-5-yl)benzyl)-1-((S)-2-(1-fluorocyclopropane-1-carboxamido)-3,3-dimethylbutanoyl)-4-hydroxypyrrolidine-2-carboxamide], at HDAC3, the “HDAC3 protein levels, relative protein abundance compared to DMSO control” value was “promote degradation; also recorded: significant and selective reduction”. This compound also gave a pIC50 against VHL of 5.03.
